According to patent US20060188501A1, “Diagnostic and therapeutic agents for rheumatoid arthritis” (Kyowa Hakko Kogyo Co., Ltd., priority 2000, published 2006):

Test system: Synoviocytes derived from a rheumatoid arthritis patient
Experiment: Growth of synoviocytes measured by MTT assay
Type: cell-based, human
Details: genistein 1.5, 3, 6, 12.5 and 25 μg/ml, 7 days culture, FIG. 2
Experimental: That is, synoviocytes obtained from a rheumatoid arthritis patient by surgery were minced, followed by enzyme treatment in RPMI1640 medium containing collagenase (4 mg/ml) at 37° C. for 4 hours to loosen the cells. The obtained cells were cultured in a growth medium (RPMI1640 containing 10% fetal calf serum) in a humidified CO2 incubator (5% CO2), with replacement of the growth medium at intervals of 3 to 4 days. When the cells grew to be subconfluent, the cells were subcultured at the ratio of 1:2 to 1:4 (that is, the cells were collected, transferred into other culture flasks in 1/2 to 1/4 portions and cultured in a fresh growth medium). Subculturing was repeated for 7 to 15 passages and the resulting cells were used in the following experiments.
The growth of synoviocytes was measured by the assay using MTT [3,(4,5-dimethylthiazol-2-yl)2,5-diphenyl-tetrazolium bromide]
Synoviocytes derived from a rheumatoid arthritis patient which were prepared in the same manner as in Example 1 were seeded on a 96-well microplate in an amount of 5×10^3 cells/well and precultured in the growth medium at 37° C. overnight. […] Then, 100 μl of dimethyl sulfoxide was added to dissolve the fomazan complex and the absorbance at the wavelength of 590 nm was measured with 96-well multiscanner Immno-Mini (Japan Inter Med) as the degree of cell growth. […]

SMILES: O=c1c(-c2ccc(O)cc2)coc2cc(O)cc(O)c12 [genistein]
- growth of synoviocytes (absorbance at 590 nm, MTT): inhibited in a manner dependent on the genistein concentration
